Experiments:
[1] = biological target: T1, HDAC6 (Homo sapiens, UniProt Q9UBN7); experiment: In-cell ELISA of HDAC6 protein level in MM1S cells; assay type: cell-based; details: 6 h; for DC50 / Dmax: 0.1 nM to 1 μM, nonlinear fit, ± SD; for Dmax / inhibition at 0.01 µM / inhibition at 0.1 µM: MM1.S; for Dmax: read-out: Dmax (Vehicle %); for inhibition at 0.01 µM: 10 nM, n=3, read-out: Degradation (%) 10 nM; for inhibition at 0.01 µM / inhibition at 0.1 µM: 100% minus mean (± SD) relative HDAC6 expression; for inhibition at 0.1 µM: 100 nM, n=3, read-out: Degradation (%) 100 nM
T1 construct: endogenous in cells; host or cells: MM1S (ATCC CRL-2974)
T1 sequence (Q9UBN7 1-1215): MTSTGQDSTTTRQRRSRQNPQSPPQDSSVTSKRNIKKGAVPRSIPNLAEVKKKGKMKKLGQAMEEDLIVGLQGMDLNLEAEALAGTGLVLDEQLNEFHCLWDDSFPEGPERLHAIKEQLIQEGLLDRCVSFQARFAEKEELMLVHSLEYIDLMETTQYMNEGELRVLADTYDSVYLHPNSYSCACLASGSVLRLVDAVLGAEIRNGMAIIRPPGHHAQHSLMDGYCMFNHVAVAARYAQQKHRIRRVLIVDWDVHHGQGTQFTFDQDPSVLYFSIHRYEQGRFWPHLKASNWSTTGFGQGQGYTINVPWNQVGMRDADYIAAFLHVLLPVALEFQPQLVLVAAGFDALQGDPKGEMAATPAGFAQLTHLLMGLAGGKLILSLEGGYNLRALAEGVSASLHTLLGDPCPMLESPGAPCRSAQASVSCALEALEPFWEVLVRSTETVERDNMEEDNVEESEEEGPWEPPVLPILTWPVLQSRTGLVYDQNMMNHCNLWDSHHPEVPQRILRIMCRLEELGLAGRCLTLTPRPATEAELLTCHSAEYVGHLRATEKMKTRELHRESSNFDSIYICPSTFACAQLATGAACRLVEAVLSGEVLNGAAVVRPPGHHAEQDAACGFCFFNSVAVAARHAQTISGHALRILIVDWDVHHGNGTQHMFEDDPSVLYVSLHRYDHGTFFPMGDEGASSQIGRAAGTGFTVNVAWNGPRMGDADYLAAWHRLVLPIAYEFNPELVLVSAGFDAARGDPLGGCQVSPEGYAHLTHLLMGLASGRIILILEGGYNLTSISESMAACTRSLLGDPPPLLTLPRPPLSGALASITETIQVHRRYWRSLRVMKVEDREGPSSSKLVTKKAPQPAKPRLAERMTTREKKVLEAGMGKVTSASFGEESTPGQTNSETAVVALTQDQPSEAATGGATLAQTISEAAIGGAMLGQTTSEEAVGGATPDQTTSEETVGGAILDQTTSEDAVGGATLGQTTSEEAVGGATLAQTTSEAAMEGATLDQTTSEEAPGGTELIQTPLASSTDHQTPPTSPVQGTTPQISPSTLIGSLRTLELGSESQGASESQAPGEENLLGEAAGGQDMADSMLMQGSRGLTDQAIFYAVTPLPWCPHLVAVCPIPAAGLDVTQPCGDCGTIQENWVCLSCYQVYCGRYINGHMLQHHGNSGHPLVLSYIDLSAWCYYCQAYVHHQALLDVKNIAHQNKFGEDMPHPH
Procedure: FIG. 9 is a histogram depicting the results of screening of compounds for HDAC6 degradation activity by in-cell ELISA. MM1S cells were treated with compounds at 100 nM (blue bars) or 10 nM (red bars) for 6 h. Data was normalized to vehicle (DMSO)-treated group and the bar graph represents as mean of relative HDAC6 protein level (n=3) with ±SD as error bar. Statistical significance was analyzed by one-way ANOVA. Not significant (ns) P>0.05, *P≤0.05, **P≤0.01, ***P≤0.001, ****P≤0.0001.
FIG. 11 is a graph depicting dose response of selected degrader candidates. MM1S cells were treated for 6 h and analyzed by in-cell ELISA. Data was normalized to vehicle (DMSO)-treated group and dot plot represented as mean relative expression (n=3) with ±SD as error bar. Nonlinear fitting of inhibitor concentration vs. response (three parameters) was generated by GraphPad Prism with R2 from 0.97 to 0.99.
FIG. 15 is a histogram depicting relative HDAC6 expression as a function of linker length for compounds 3a through 3k as described in the Examples section, Part 2. Human MM1S cells were treated with 100 nM degraders for 6 hours and analyzed by in-cell ELISA assay.
FIG. 17 is a dose-response curve for degraders 3j (n=1), 3k (n=12) and 2, at concentrations from 1 nM to 300 nM for 4 h in MM1S. See the Examples, Part 2.
To screen the new series of degraders, an in-cell ELISA assay was developed and validated. The compounds were treated at 100 nM and 10 nM in MM1S cells for 6 h. Resulting cells were then fixed and analyzed by in-cell ELISA. […] Degraders including 1 at 100 nM degraded 73.5% to 85.0% of HDAC6 with minor difference. At 10 nM concentration of compounds, obvious structure-activity-relationship (SAR) was observed. […] For example, 12d, 12h, 12i, 12o and 12p all achieved about 70% degradation. Among the C4-linked series, 12d with medium length linker (5+1) achieved most degradation in sub-series 12a-e (m=1). […] Among C5-linked series, the potency of sub-series 12l-p (m=1) increased with the linker length. […] It appeared that both the distance and linking positions contributed to the degradation efficiency. The rigid triazole ring in the middle of the linker likely modulated the plasticity of degrader-bridged ternary complex.
The amount of cellular HDAC6 was measured in response to concentrations of compounds from 0.1 nM to 1 μM. […] The new degraders had single-digit nanomolar DC50, which was about 3 to 5 fold of improvement from 9.12 nM of degrader 1. […] As discussed above, most PROTACs were designed to avoid degrading other proteins except the targeted POIs. However, in these studies, it was hypothesized that HDAC6 degraders with IKZF degradation will have enhanced anti-proliferation effect MM1S cells.
MM1S cells were harvested and plated with 5×10^5 cells in 100 μL media per well 96-wells plate. After overnight seeding, 25 μL media containing 5× dosing concentration of the compounds or vehicle was added to each well. After 6-hour treatment at 37° C. in a humidified 5% CO2 atmosphere, cells were fixed by adding 125 μL 8% formaldehyde in TBS buffer (137 mM NaCl, 25 mM Tris, 2.7 mM potassium chloride, pH 7.6) and incubated at room temperature (RT) for 15 minutes. Removal of fixing solution was followed by once rinse and twice washes with TBS-T washing buffer (137 mM NaCl, 20 mM Tris, 0.1% Tween, pH 7.6). Cells were then permeabilized by adding 100 μL 0.1% Triton-X in TBS and incubated at RT for 15 minutes. Removal of permeabilizing solution was followed by once rinse and once wash with TBS-T. Cellular endogenous peroxidases were quenched by adding 100 μL 1% H2O2 in TBS and incubation at RT for 20 minutes. Removal of quenching solution was followed by once rinse and once wash with TBS-T. Non-specific binding sites were blocked by adding […] 5% BSA in TBS-T (with 0.02% NaN3) and incubation at 4° C. overnight. […]

[2] = tested on: acetylated tubulin; experiment: Western blot of acetylated tubulin in MM1S cells; assay type: cell-based, human; details: 100 nM
Description: (§1) FIGS. 12A, 12B, and 12C are a series of western blots showing that degrader 12d selectively promotes HDAC6 degradation in MM1S cells.
(§2) To further examine the selectivity of the new generation of HDAC6 degraders, compound 12d was compared to SAHA, Next-A, degrader 1 and pan-inhibitor 2 for change of acetylated a-tubulin and acetylated histone H3.
(§3) When the cells reached 90% confluence, they were harvested and plated 1×10^6 cells per well in 6-well plate. After overnight seeding, the cells were treated with a solution of compounds or vehicle in culture medium. The culture medium was removed after treatment and then washed twice with cold PBS. To obtain whole cell lysate, all cells were treated with RIPA lysis buffer (25 mM Tris, pH 7-8, 150 mM NaCl, 0.1% SDS, 0.5% sodium deoxycholate, 1% Triton X-100, protease inhibitor cocktail (Roche, 1 tablet per 10 mL) and 1 mM PMSF) on ice for 10 minutes. Supernatant was collected after spinning down at 16,000 g at 4° C. for 15 minutes. Protein concentration was measured by using the Pierce BCA protein assay (Thermo Fisher Scientific). About 10-40 μg of total protein was mixed with 4× Laemmli Loading Dye (250 mM Tris, pH 6.8, 40% glycerol, 5% SDS, 0.005% bromophenol blue, 4% BME) and heated at 95-100° C. for 5 minutes. The heated sample was then subjected to 7.5-12% SDS-PAGE and transferred to PVDF membrane (Bio-Rad,). The membrane was blocked in 5% non-fat milk (Bio-rad) in TBS-T washing buffer (137 mM NaCl, 20 mM Tris, 0.1% Tween) and then incubated with primary antibodies at 4° C. overnight. […] The Immunoblot was generated by ChemiDoc MP Imaging Systems (Bio-Rad) and analyzed by Image J software (only available for download online at https://imagej.net/Downloads). […]
The activity of all eleven “n+4” VHL-based potential degraders to suppress HDAC6 expression was tested at 100 nM and compared to CRBN degrader 2 in MM1S cells. The resulting cells were analyzed for HDAC6 expression by in-cell ELISA (FIG. 15). […]

[3] = tested on: acetylated histone H3; experiment: Western blot of acetylated histone H3 in MM1S cells; assay type: cell-based, human
Description: as §1, §2
as §3, with “Scientific).” for “Scientific). About 10-40 μg of total protein was mixed with 4× Laemmli Loading Dye (250 mM Tris, pH 6.8, 40% glycerol, 5% SDS, 0.005% bromophenol blue, 4% BME) and heated at 95-100° C. for 5 minutes. The heated sample was then subjected to 7.5-12% SDS-PAGE and transferred to PVDF membrane (Bio-Rad,). The membrane was blocked in 5% non-fat milk (Bio-rad) in TBS-T washing buffer (137 mM NaCl, 20 mM Tris, 0.1% Tween) and then incubated with primary antibodies at 4° C. overnight.”

| SMILES | DC50 [1] [nM] | Dmax [1] [%] | inhibition at 0.01 µM [1] [%] | inhibition at 0.1 µM [1] [%] | change of acetylated tubulin [2] | change of acetylated histone H3 [3] |
| --- | --- | --- | --- | --- | --- | --- |
| CCCCN(Cc1ccc(C(=O)NO)cc1)C(=O)Nc1ccc(OCCn2cc(CCCNc3cccc4c3C(=O)N(C3CCC(=O)NC3=O)C4=O)nn2)cc1 (stereo not drawn) [Compound 12i, 4-((1-butyl-3-(4-(2-(4-(3-((2-(2,6-dioxopiperidin-3-yl)-1,3-dioxoisoindolin-4-yl)amino)propyl)-1H-1,2,3-triazol-1-yl)ethoxy)phenyl)ureido)methyl)-N-hydroxybenzamide] | 2.54 ± 0.32 | 86.3 ± 1.67 | ~70 | 83.1 ± 1 |  |  |
| CCCCN(Cc1ccc(C(=O)NO)cc1)C(=O)Nc1ccc(OCCCn2cc(CCNc3cccc4c3C(=O)N(C3CCC(=O)NC3=O)C4=O)nn2)cc1 (stereo not drawn) [Compound 12g, 4-((1-butyl-3-(4-(3-(4-(2-((2-(2,6-dioxopiperidin-3-yl)-1,3-dioxoisoindolin-4-yl)amino)ethyl)-1H-1,2,3-triazol-1-yl)propoxy)phenyl)ureido)methyl)-N-hydroxybenzamide] |  |  | 64.8 ± 1 | 84.2 ± 0.4 |  |  |
| O=C(CCCCCCC(=O)Nc1ccccc1)NO [SAHA, Suberoylanilide hydroxamic acid, reference compound] |  |  |  |  | didn't | strong acetylated histone H3 signal |
| CCCCN(Cc1ccc(C(=O)NO)cc1)C(=O)Nc1ccc(OCCn2cc(CNc3cccc4c3C(=O)N(C3CCC(=O)NC3=O)C4=O)nn2)cc1 (stereo not drawn) [Compound 12a, 4-((1-butyl-3-(4-(2-(4-(((2-(2,6-dioxopiperidin-3-yl)-1,3-dioxoisoindolin-4-yl)amino)methyl)-1H-1,2,3-triazol-1-yl)ethoxy)phenyl)ureido)methyl)-N-hydroxybenzamide] | 3.41 ± 0.52 | 88 ± 2.23 | 62.1 ± 1 | 81.3 ± 2.3 |  |  |
| CCCCN(Cc1ccc(C(=O)NO)cc1)C(=O)Nc1ccc(OCCn2cc(CNc3ccc4c(c3)C(=O)N(C3CCC(=O)NC3=O)C4=O)nn2)cc1 (stereo not drawn) [Compound 12l, 4-((1-butyl-3-(4-(2-(4-(((2-(2,6-dioxopiperidin-3-yl)-1,3-dioxoisoindolin-5-yl)amino)methyl)-1H-1,2,3-triazol-1-yl)ethoxy)phenyl)ureido)methyl)-N-hydroxybenzamide] |  |  | 57.1 ± 1.4 | 81.4 ± 0.6 |  |  |
| CCCCN(Cc1ccc(C(=O)NO)cc1)C(=O)Nc1ccc(OCCn2cc(CCNc3cccc4c3C(=O)N(C3CCC(=O)NC3=O)C4=O)nn2)cc1 (stereo not drawn) [Compound 12f, 4-((1-butyl-3-(4-(2-(4-(2-((2-(2,6-dioxopiperidin-3-yl)-1,3-dioxoisoindolin-4-yl)amino)ethyl)-1H-1,2,3-triazol-1-yl)ethoxy)phenyl)ureido)methyl)-N-hydroxybenzamide] |  |  | 49.3 ± 0.6 | 81.8 ± 0.9 |  |  |
| CCCCN(Cc1ccc(C(=O)NO)cc1)C(=O)Nc1ccc(OCCCCn2cc(CCNc3cccc4c3C(=O)N(C3CCC(=O)NC3=O)C4=O)nn2)cc1 (stereo not drawn) [Compound 12h, 4-((1-butyl-3-(4-(4-(4-(2-((2-(2,6-dioxopiperidin-3-yl)-1,3-dioxoisoindolin-4-yl)amino)ethyl)-1H-1,2,3-triazol-1-yl)butoxy)phenyl)ureido)methyl)-N-hydroxybenzamide] |  |  | ~70 | 79.2 ± 0.9 |  |  |

Source: patent US11059815B2, “Synthesis of small molecule histone deacetylase 6 degraders, compounds formed thereby, and pharmaceutical compositions containing them” (Wisconsin Alumni Research Foundation, priority 2018, dated 2021)
